Experiments:
[1] = test system: LOX; assay: LOX activity measured in blood samples (LOX activity assay kit); assay type: in vivo; conditions: treated mice vs control; BAPN 2 weeks, LOX siRNA 1 week
Protocol: LOX activity in the serum and lung homogenate was measured using LOX activity assay kit (ABD Bioquest, CA) in which LOX substrate that releases hydrogen peroxide was detected ^13,37,55. Hydroxyproline in lung tissue or serum was measured using Hydroxyproline assay kit (Biovision, Milpitas, Calif.)^27. The levels of IL-1 and TNF-α in the lung homogenate were measured by ELISA (R&D systems).

[2] = test system: mouse lungs; assay: In vivo pulmonary permeability assay (Evan's Blue dye leakage); parameters: species or system mice
Protocol: (§1) Mice (6-10 weeks old, CD1 strain, female) were treated with LPS (100 mg, intraperitoneally) and lung permeability was assessed 2 days after injection ^3. […] The lung permeability was measured using Evan's Blue dye or low MW fluorescently labeled dextran (MW 4000, sigma) leakage ^3. Evans blue dye was extracted from the lung by incubation with formamide (70° C. for 24 h) and the concentration of Evans blue was estimated by dual-wavelength spectrophotometer (620 nm and 740 nm). Mice were treated with BAPN (3 mg/kg, drinking water) for 14 days ^13. […] The inventors treated the mice with LPS for the last two days. For decellularization of lung, the inventors perfused the lung with decellularization buffer (0.5% SDS/PBS) for 1 h and cryosectioned it and analyzed by H&E staining and immunohistochemistry 25,26. […] For analysis of collagen structure, the inventors used picrosirius red staining ^30 and observed the structure using birefringence microscope (Abrio imaging system, CRI, MA)^30.

[3] = test system: lung cell; assay: Lung cell proliferation or apoptosis in vivo; parameters: species or system mice; conditions: data not shown
[4] = test system: pulmonary endothelial cells; assay: Endothelial cell-cell junctional integrity in lung by TEM; assay type: in vivo, mice
Protocol: For transmission electron microscopy (TEM), small pieces (1-2 mm cubes) of lung tissue were fixed with 2.5% Glutaraldehyde and 2% Paraformaldehyde in 0.1 M sodium cacodylate buffer (pH 7.4) for at least 2 h at RT, washed in 0.1M cacodylate buffer and postfixed with 1% Osmiumtetroxide (OsO4)/1.5% Potassiumferrocyanide (KFeCN6) for 1 h, washed in water and incubated in 1% aqueous uranyl acetate for 1 h followed by washes in water and subsequent dehydration in grades of alcohol. The samples were then put in propyleneoxide for 1 hr and infiltrated ON in a 1:1 mixture of propyleneoxide and TAAB Epon (Marivac Canada Inc. St. Laurent, Canada). The samples were then embedded in TAAB Epon and polymerized at 60 C for 48 hrs. Ultrathin sections (about 60 nm) were cut on a Reichert Ultracut-S microtome, picked up on to copper grids stained with lead citrate and examined in a JEOL 1400 TEM microscope or a TecnaiG^2 Spirit BioTWIN.

[5] = test system: mouse lung tissues; assay: Lung stiffness (Young's modulus) by tensile loading assay; conditions: compared with controls (control IgG, control siRNA)
Protocol: Mice (6-10 weeks old, CD1 strain, female) were treated with LPS (100 mg, intraperitoneally) and lung permeability was assessed 2 days after injection ^3. […] Gene knockdown or overexpression in the lung (2 days later) was confirmed by measuring mRNA and/or protein levels using qRT-PCR and IB, respectively. […] Mice were treated with BAPN (3 mg/kg, drinking water) for 14 days ^13. The inventors also treated mice with LOX function-blocking polyclonal antibody (3 mg/kg)^13,36, LOX DNA or LOX siRNA (10 mg/mouse) injected intravenously (retro orbital injection) twice per week. The inventors treated the mice with LPS for the last two days.
The inventors trimmed and made cylindrical lung tissue sections using a sharp knife that included peripheral and central portions of the left lobe. The stiffness of mouse lung tissues was evaluated by determining Young's Modulus (E) under tensile loading ^31,32 (Mach-1; Biomomentum, Canada). Tissues were attached to the base and probe using polyacrylamide glue and stretched until complete breakage of the tissue. The Young's Modulus was derived from the slope of a standard stress-strain curve using data within the first 10% of the maximum strain.

[6] = test system: mouse lungs; assay: Inflammatory cell count in BAL fluid (Wright-Giemsa stain); assay type: in vivo, mice; conditions: total inflammatory cell count
Protocol: BAL was performed by instilling 0.9% NaCl in two separate 0.5 ml aliquots. The fluid was recovered by gentle suction and placed on ice for immediate processing. An aliquot of the BAL fluid was processed immediately for differential cell counts performed on cytospin preparations stained with modified Wright-Giemsa stain (Diff-Quik; American Scientific Products, McGaw Park, Ill.).

[7] = test system: mouse lungs; assay: Endotoxin (LPS)-induced lung vascular permeability, Evan's Blue dye leakage; conditions: for increase of vascular permeability induced by LPS: treatment in combination with LPS for the last two days
Protocol: as §1

[8] = test system: mouse lungs; assay: ECM and collagen structure of decellularized lung (H&E, immunofluorescence, picrosirius red birefringence); conditions: for collagen fiber alignment with alveolar septae: picrosirius red staining, birefringence microscopy
Protocol: as §1

[9] = test system: LOX; assay: LOX mRNA and protein expression in vivo (qRT-PCR, immunoblot); parameters: species or system mice
Protocol: Quantitative reverse transcription (qRT)-PCR was performed with the Quantitect SYBR Green RT-PCR kit (QIAGEN) using ABI 7300 real time PCR system (Applied Biosystems, Foster City, Calif.). Cyclophilin controlled for overall cDNA content. The primers used for mouse cyclophilin were forward; 5′-[…]-3′ (SEQ ID NO:4), reverse; 5′-[…]-3′(SEQ ID NO:5)^15. The primers for mouse LOX were forward; 5′-[…]-3′(SEQ ID NO:6), reverse; 5′-[…]-3′(SEQ ID NO:7).

Compound | decrease in LOX activity measured in blood samples [1] [%] | lung vascular permeability: Evan's Blue dye leakage higher than in control non-treated lungs ([2]; BAPN treatment of healthy mice) | lung cell proliferation or apoptosis in vivo [3] | junctions between pulmonary endothelial cells [4] | decrease of lung stiffness (Young's modulus) [5] [%] | increase of inflammatory cells in the bronchoalveolar lavage (BAL) fluid [6] | LPS-induced pulmonary edema in mice ([7]; mouse, in vivo) | increase of vascular permeability induced by LPS [7] | disruption of collagen VI-positive ECM fibers by LPS ([8]; decellularized lungs, LPS in combination with BAPN) | fine collagen fibril / ECM structure in decellularized lung ([8]; immunofluorescence microscopy) | collagen fiber alignment with alveolar septae [8] | suppression of vascular permeability induced by LPS treatment ([7]; Evans blue dye leakage, 8 mg/mouse/day, IP, two days) [%] | increase of lung vascular permeability ([2]; Evan's Blue dye leakage, compared to control-treated or untreated mice) [fold] | LOX expression in the lung ([9]; mRNA and/or protein) | LOX expression in other organs, such as the kidney ([9]; not shown)
N#CCCN [BAPN, beta-aminopropionitrile] | 25 | more than 60% | did not produce detectable changes | disrupted | 40 | approximately 2 fold | inhibits | prevented | prevented this disruption | lost the fine network | more randomly distributed | – | – | – | –
CC(C)(S)[C@@H](N)C(=O)O [D-penicillamine] | – | – | – | – | – | – | – | – | – | – | – | 40 | – | – | –
LOX siRNA: siRNA for mouse LOX, 5′-CAACGGGCAGGUGUUCAG-3′ (SEQ ID NO:2) and 5′-CUGAACACCUGCCCGUUG-3′ (SEQ ID NO:3) (listed as RNA, chemistry not given here) | 60 | – | – | – | 30 | – | – | restored | – | – | disrupted normal collagen fiber alignment | – | 2.5 | specifically decreased | not in the kidney

Reference: US10293023B2, “Method of altering vascular permeability and uses thereof” (CHILDREN'S MEDICAL CENTER CORPORATION, priority 2013, dated 2019)
